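In this assay, cells in 96-well plates receive the compound at five concentrations for 48 hours. Endpoints are linearly interpolated between the surrounding concentrations. TGI: concentration producing complete growth inhibition.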
What was measured:
Assay in all cases: growth of human tumour cells (NCI), 48 h
[1] = test system: DLD-1 colon
[2] = test system: HOP-18 NSCLC
[3] = test system: XF 498 CNS
[4] = test system: DMS 273 small cell lung
[5] = test system: RXF-631 renal
[6] = test system: KM20L2 colon
[7] = test system: IGROV1 ovarian
[8] = test system: HL-60(TB) leukemia
[9] = test system: OVCAR-5 ovarian
[10] = test system: DMS 114 small cell lung
[11] = test system: SNB-78 CNS
[12] = test system: 786-0 renal
[13] = test system: M19-MEL melanoma
[14] = test system: LXFL 529 NSCLC

Measured: TGI

Cc1cc(N(CCC#N)CCC#N)ccc1C=Nc1ccc(C(=O)NN2C(=O)/C(=C/c3ccc(N(CCC#N)CCC#N)cc3)N=C2c2cc([N+](=O)[O-])ccc2Cl)cc1
> 100 µM: all assays above
